This is an account of results in patent publication US20240109918A1, “HETEROCYCLIC COMPOUNDS AND USES THEREOF” (Kumquat Biosciences Inc., priority 2022, published 2024).

One assay concerns the target T1, KRASG12D (Homo sapiens, UniProt P01116, G12D).
T1 construct: made in house; host or cells: E. coli BL21 (DE3)
Briefly: Bio-Biochem-PPI-HTRF Ras-SOS1 interaction assay (KRAS G12D). In kind it is biochemical. The following applies: 5 nM. As for the experimental part: (§1) The assay buffer can contain −5 mM HEPES pH 7.4, ˜150 mM NaCl, ˜ 1 mM DTT, 0.05% BSA and 0.0025% (v/v) Igepal. A Ras working solution is prepared in an assay buffer containing typically a suitable amount of the protein construct (e.g., GST-tagged K-Ras mutant) and the FRET donor (e.g., antiGST-Eu(K) from Cisbio, France). A SOS1 working solution is prepared in an assay buffer containing suitable amount of the protein construct (e.g., His-hSOS1) and the FRET acceptor (e.g., anti-6His-XL665 from Cisbio, France). A suitable amount of the protein construct will depend on the range of activity or range of IC50 values being detected or under investigation. For detecting IC50 within a range of 500 nM, the protein constructs of the same range of molarity can be utilized. […] A fixed volume of DMSO with or without test compound is transferred into a 384-well plate. Ras working solution is added to all wells of the test plate. SOS1 working solution is added to all wells except for those that are subsequently filled the inhibitor control solution. Upon incubation for about 10 minutes or longer, the fluorescence is measured with a M1000Pro plate reader (Tecan) using HTRF detection (excitation 337 nm, emission 1:620 nm, emission 2: 665 nm). Compounds are tested in duplicates at different concentrations (for example, 10 μM, 2.5 μM, 0.63 μM, 0.16 μM, 0.04 μM, 0.01 μM test compound). The ratiometric data (i.e., emission 2 divided by emission 1) is used to calculate IC50 values against Ras using GraphPad Prism (GraphPad software). Following this general procedure, samples were tested with or without a subject compound disclosed herein including compounds exemplified in Table 1 to assess their abilities to inhibit a mutant K-Ras relative to another mutant K-Ras or wildtype K-Ras. Signaling output measured in terms of IC50 values can be obtained, a ratio of IC50 against one mutant relative to another mutant can be calculated. For instance, a selective reduction of K-Ras G12D signaling output can be evidenced by a ratio greater than one. In particular, a selective reduction of K-Ras G12D signaling relative to K-Ras WT signaling is evidenced as the ratio of IC50 (against K-Ras WT) to IC50 (against K-Ras G12D) is greater than 1.
(In TR-FRET formats the signal depends on donor and acceptor labels being close together.)

For the next assay, the target named is T2, KRASwt (Homo sapiens, UniProt P01116).
T2 construct: made in house; host or cells: E. coli BL21 (DE3)
Briefly: Bio-Biochem-PPI-HTRF Ras-SOS1 interaction assay (KRAS wt). In kind it is biochemical. The following applies: 5 nM. As for the experimental part: as §1

SMILES strings stand for the structures.

T2 sequence (P01116 1-188 isoform P01116-2): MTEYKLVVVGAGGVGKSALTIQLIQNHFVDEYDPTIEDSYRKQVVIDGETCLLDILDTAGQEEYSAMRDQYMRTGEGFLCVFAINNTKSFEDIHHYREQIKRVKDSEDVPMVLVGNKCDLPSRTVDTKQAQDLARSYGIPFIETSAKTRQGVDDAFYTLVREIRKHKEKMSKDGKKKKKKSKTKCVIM
T1 sequence (P01116 1-188 isoform P01116-2 G12D): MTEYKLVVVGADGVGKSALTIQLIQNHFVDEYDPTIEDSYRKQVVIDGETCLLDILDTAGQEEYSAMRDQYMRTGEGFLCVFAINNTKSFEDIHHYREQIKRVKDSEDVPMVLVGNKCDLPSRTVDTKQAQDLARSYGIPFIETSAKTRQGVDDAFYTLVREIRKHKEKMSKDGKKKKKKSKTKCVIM

Usually IC50 stands for the concentration that inhibits the measured activity by half. A high value points to weaker potency in that assay. For `CN1CCC[C@H]1COc1nc(N2CCOC3(CNC3)C2)c2cc(Cl)c(-c3ccc(F)c4sc(N)c(C#N)c34)c(F)c2n1` (single isomer, unassigned) [compound 114], the half-maximal inhibitory concentration (IC50) against KRASG12D and against KRASwt was < 5 µM in each case.
Regarding `N#Cc1c(N)sc2c(F)ccc(-c3c(Cl)cc4c(N5CCCCC6(CN(C(=O)[C@H]7CC7(F)F)C6)C5)nc(OC[C@@]56CCCN5C[C@H](F)C6)nc4c3F)c12` (single isomer, unassigned) [compound 118], the IC50 against KRASG12D and at KRASwt was < 5 µM throughout.
`N#Cc1c(N)sc2c(F)ccc(-c3c(Cl)cc4c(N5CCOC6(CN(C(=O)[C@H]7CC7(F)F)C6)C5)nc(OC[C@@]56CCCN5C[C@H](F)C6)nc4c3F)c12` (single isomer, unassigned) [compound 176]: the 50% inhibitory concentration (IC50) at KRASG12D and at KRASwt was < 5 µM throughout.
As to `C[C@H](Oc1nc(N2CCOC3(CNC3)C2)c2cc(Cl)c(-c3ccc(F)c4sc(N)c(C#N)c34)c(F)c2n1)[C@@H]1CCCN1C` (single isomer, unassigned; atropisomer 1) [compound 128], the IC50 was ≥ 5 µM against KRASG12D and < 5 µM against KRASwt.
For the molecule `CN1CCC[C@H]1COc1nc(N2CCOC3(CNC3)C2)c2cc(Cl)c(-c3ccc(F)c4sc(N)c(C#N)c34)c(F)c2n1` (single isomer, unassigned; atropisomer 2) [compound 121], the concentration for half-maximal inhibition (IC50) against KRASG12D was < 5 µM.
`N#Cc1c(N)sc2c(F)ccc(-c3c(Cl)cc4c(N5CCCCC6(CN(C(=O)N7CC(C(F)F)C7)C6)C5)nc(OC[C@@]56CCCN5C[C@H](F)C6)nc4c3F)c12` [compound 262, 2-amino-4-(6-chloro-4-(2-(3-(difluoromethyl)azetidine-1-carbonyl)-2,6-diazaspiro[3.6]decan-6-yl)-8-fluoro-2-(((2R,7aS)-2-fluorotetrahydro-1H-pyrrolizin-7a(5H)-yl)methoxy)quinazolin-7-yl)-7-fluorobenzo[b]thiophene-3-carbonitrile]: the IC50 against KRASG12D is < 5 µM.
Turning to `N#Cc1c(N)sc2c(F)ccc(-c3c(Cl)cc4c(N5CCCCC6(CN(C(=O)N7CC[C@H]7C#N)C6)C5)nc(OC[C@@]56CCCN5C[C@H](F)C6)nc4c3F)c12` [compound 264, (2S)-1-(6-(7-(2-amino-3-cyano-7-fluorobenzo[b]thiophen-4-yl)-6-chloro-8-fluoro-2-(((2R,7aS)-2-fluorotetrahydro-1H-pyrrolizin-7a(5H)-yl)methoxy)quinazolin-4-yl)-2,6-diazaspiro[3.6]decane-2-carbonyl)azetidine-2-carbonitrile], the IC50 on KRASG12D is < 5 µM.
Consider `N#Cc1c(N)sc2c(F)ccc(-c3c(Cl)cc4c(N5CCCCC6(CN(C(=O)C7CC7)C6)C5)nc(OC[C@@]56CCCN5C[C@H](F)C6)nc4c3F)c12` [compound 281, 2-amino-4-(6-chloro-4-(2-(cyclopropanecarbonyl)-2,6-diazaspiro[3.6]decan-6-yl)-8-fluoro-2-(((2R,7aS)-2-fluorotetrahydro-1H-pyrrolizin-7a(5H)-yl)methoxy)quinazolin-7-yl)-7-fluorobenzo[b]thiophene-3-carbonitrile], for which the IC50 at KRASG12D was < 5 µM.
For `N#Cc1c(N)sc2c(F)ccc(-c3c(Cl)cc4c(N5CCCCC6(CN(C(=O)C(F)Cl)C6)C5)nc(OC[C@@]56CCCN5C[C@H](F)C6)nc4c3F)c12` (stereo partly drawn) [compound 291, 2-amino-4-(6-chloro-4-(2-(2-chloro-2-fluoroacetyl)-2,6-diazaspiro[3.6]decan-6-yl)-8-fluoro-2-(((2R,7aS)-2-fluorotetrahydro-1H-pyrrolizin-7a(5H)-yl)methoxy)quinazolin-7-yl)-7-fluorobenzo[b]thiophene-3-carbonitrile], the half-maximal inhibitory concentration (IC50) against KRASG12D was < 5 µM.
Consider `N#Cc1c(N)sc2c(F)ccc(-c3c(Cl)cc4c(N5CCCCC6(CN(C(=O)C7CC(C#N)C7)C6)C5)nc(OC[C@@]56CCCN5C[C@H](F)C6)nc4c3F)c12` (stereo partly drawn) [compound 295, 2-amino-4-(6-chloro-4-(2-(3-cyanocyclobutane-1-carbonyl)-2,6-diazaspiro[3.6]decan-6-yl)-8-fluoro-2-(((2R,7aS)-2-fluorotetrahydro-1H-pyrrolizin-7a(5H)-yl)methoxy)quinazolin-7-yl)-7-fluorobenzo[b]thiophene-3-carbonitrile], for which, on KRASG12D, the 50% inhibitory concentration (IC50) was < 5 µM.
The same measure, in the same setting: to `N#Cc1c(N)sc2c(F)ccc(-c3c(Cl)cc4c(N5CCCCC6(CN(C(=O)CC7COC7)C6)C5)nc(OC[C@@]56CCCN5C[C@H](F)C6)nc4c3F)c12` [compound 297, 2-amino-4-(6-chloro-8-fluoro-2-(((2R,7aS)-2-fluorotetrahydro-1H-pyrrolizin-7a(5H)-yl)methoxy)-4-(2-(2-(oxetan-3-yl)acetyl)-2,6-diazaspiro[3.6]decan-6-yl)quinazolin-7-yl)-7-fluorobenzo[b]thiophene-3-carbonitrile] belongs < 5 µM.
Turning to `N#Cc1c(N)sc2c(F)ccc(-c3c(Cl)cc4c(N5CCCCC6(CN(C(=O)C7C8COCC87)C6)C5)nc(OC[C@@]56CCCN5C[C@H](F)C6)nc4c3F)c12` (stereo partly drawn) [compound 299, 4-(4-(2-(3-oxabicyclo[3.1.0]hexane-6-carbonyl)-2,6-diazaspiro [3.6]decan-6-yl)-6-chloro-8-fluoro-2-(((2R,7aS)-2-fluorotetrahydro-1H-pyrrolizin-7a(5H)-yl)methoxy)quinazolin-7-yl)-2-amino-7-fluorobenzo[b]thiophene-3-carbonitrile], the IC50 on KRASG12D was < 5 µM.
Regarding `N#Cc1c(N)sc2c(F)ccc(-c3c(Cl)cc4c(N5CCCCC6(CN(C(=O)N7CC(F)(F)C7)C6)C5)nc(OC[C@@]56CCCN5C[C@H](F)C6)nc4c3F)c12` [compound 307, 2-amino-4-(6-chloro-4-(2-(3,3-difluoroazetidine-1-carbonyl)-2,6-diazaspiro[3.6]decan-6-yl)-8-fluoro-2-(((2R,7aS)-2-fluorotetrahydro-1H-pyrrolizin-7a(5H)-yl)methoxy)quinazolin-7-yl)-7-fluorobenzo[b]thiophene-3-carbonitrile], the 50% inhibitory concentration (IC50) against KRASG12D is < 5 µM.
Regarding `N#Cc1c(N)sc2c(F)ccc(-c3c(Cl)cc4c(N5CCCCC6(CN(C(=O)C7CC78CCOC8)C6)C5)nc(OC[C@@]56CCCN5C[C@H](F)C6)nc4c3F)c12` (stereo partly drawn) [compound 310, 4-(4-(2-(5-oxaspiro[2.4]heptane-1-carbonyl)-2,6-diazaspiro[3.6]decan-6-yl)-6-chloro-8-fluoro-2-(((2R,7aS)-2-fluorotetrahydro-1H-pyrrolizin-7a(5H)-yl)methoxy)quinazolin-7-yl)-2-amino-7-fluorobenzo [b]thiophene-3-carbonitrile], the concentration for half-maximal inhibition (IC50) against KRASG12D is < 5 µM.
For the molecule `N#Cc1c(N)sc2c(F)ccc(-c3c(Cl)cc4c(N5CCCCC6(CN(C(=O)NC7(C(F)(F)F)CC7)C6)C5)nc(OC[C@@]56CCCN5C[C@H](F)C6)nc4c3F)c12` [compound 315, 6-(7-(2-amino-3-cyano-7-fluorobenzo[b]thiophen-4-yl)-6-chloro-8-fluoro-2-(((2R,7aS)-2-fluorotetrahydro-1H-pyrrolizin-7a(5H)-yl)methoxy)quinazolin-4-yl)-N-(1-(trifluoromethyl)cyclopropyl)-2,6-diazaspiro[3.6]decane-2-carboxamide], the IC50 at KRASG12D was < 5 µM.
As to `N#Cc1c(N)sc2c(F)ccc(-c3c(Cl)cc4c(N5CCCCC6(CN(C(=O)C78CC(C#N)(C7)C8)C6)C5)nc(OC[C@@]56CCCN5C[C@H](F)C6)nc4c3F)c12` [compound 321, 2-amino-4-(6-chloro-4-(2-(3-cyanobicyclo[1.1.1]pentane-1-carbonyl)-2,6-diazaspiro[3.6]decan-6-yl)-8-fluoro-2-(((2R,7aS)-2-fluorotetrahydro-1H-pyrrolizin-7a(5H)-yl)methoxy)quinazolin-7-yl)-7-fluorobenzo[b]thiophene-3-carbonitrile], the IC50 on KRASG12D is < 5 µM.
As for `N#Cc1c(N)sc2c(F)ccc(-c3c(Cl)cc4c(N5CCCCC6(CN(C(=O)CC7CC7(F)F)C6)C5)nc(OC[C@@]56CCCN5C[C@H](F)C6)nc4c3F)c12` (stereo partly drawn) [compound 331, 2-amino-4-(6-chloro-4-(2-(2-(2,2-difluorocyclopropyl)acetyl)-2,6-diazaspiro[3.6]decan-6-yl)-8-fluoro-2-(((2R,7aS)-2-fluorotetrahydro-1H-pyrrolizin-7a(5H)-yl)methoxy)quinazolin-7-yl)-7-fluorobenzo[b]thiophene-3-carbonitrile], at KRASG12D, the IC50 is < 5 µM.
